Measured values taken from article PMC6384730, “Systematic Identification of Thiosemicarbazides for Inhibition of Toxoplasma gondii Growth In Vitro” (Molecules, 2019).
≈ marks a conversion by molar mass, not a printed value. Read-outs that look alike come from different tables or passages of the source.

Legend:
Toxoplasma gondii = test system: Toxoplasma gondii; parameters: method as in PMID 25010466; details: previously reported; cited from earlier work
T. gondii RH tachyzoites = experiment: Influence on T. gondii proliferation ([3H]uracil incorporation) in infected Vero cells; type: cell-based, Toxoplasma gondii; details: Toxoplasma gondii, Vero
Protocol: Vero cell line (African green monkey kidney) (ATCC® CCL-81™) were maintained in EMEM (EMEM/10%HIFBS/P/S) (Eagle’s Minimum Essential Medium—ATCC® 30-2003™) culture medium supplemented with 10% HIFBS (Heat-Inactivated (1 h in 56°C) Fetal Bovine Serum—ATCC), 100 U/mL penicillin, 100 μg/mL streptomycin. The cell line was trypsinized (using Trypsin-EDTA Solution, 1X ATCC® 30-2101™) twice a week, and seeded at density 1 × 10^6 per T25 cell culture flask (Falcon), and incubated for 24–48 h at 37 °C and 5 CO2 to achieve a confluent monolayer. The highly virulent RH strain of Toxoplasma gondii, haplogroup I (ATCC® PRA-310™) were maintained as tachyzoites according to the ATCC product sheet, in DMEM (Dulbecco’s Modified Eagle’s Medium—ATCC® 30-2002™) (DMEM/3%HIFBS/P/S—parasite culture medium) under condition 37 °C and 5 CO2 and passage twice per week.
The Vero cells were seeded on 96-well plates (1 × 10^5 cells/100 µL/well) in EMEM/10%HIFBS/P/S. After 24 h of incubation medium was removed and then T. gondii RH tachyzoites were added to the cell monolayers at density 1 × 10^5 cells/100 µL/well in DMEM/3%HIFBS/P/S. One hour later different compounds and sulfadiazine dilutions (100 µL/well) in parasite culture medium were added to the cell monolayers with T. gondii. After subsequent 24 h of incubation 1 µCi/well [5,6-^3H] uracil (Moravek Biochemicals Inc., Brea, CA, USA) was applied to each microculture for further 72 h. The amount of the isotope incorporated into the parasite nucleic acid pool, corresponding to the parasite growth, was measured by liquid scintillation counting using 1450 Microbeta Plus Liquid Scintillation Counter (Wallac Oy, Turku, Finland). The results were expressed as counts per minute (CPM) and transformed to the percentage of viability compared to untreated cells. All experiments were performed in triplicate.

[1] = MTT cell viability (cytotoxicity) assay on L929 cells; type: cell-based, mouse; details: mouse, L929 mouse fibroblast cells, 24 h, % of untreated cells
Protocol: (§1) Cells were trypsinized twice a week, and seeded at density 1 × 10^6 per T25 cell culture flask, and incubated for 24-48 h at 37 °C and 10% CO2 to achieve a confluent monolayer. […] The final concentration of DMSO in compounds dilutions was not higher than 1.00%. […] Dilution of the all compounds 2-22 and drug were freshly prepared before the cells were exposed. […] The MTT assay was used according to international standards: ISO 10993-5:2009(E), Biological evaluation of medical devices, Part 5: Tests for in vitro cytotoxicity. […] Afterward, the culture medium in the plates was replaced by 100 μL of compounds and sulfadiazine suspension and the cells were exposed for 24 h. Then, 1 mg/mL of MTT solution in RPMI 1640 without phenol red was prepared and 50 μL of the solution was added to each well and incubated at 37 °C, 10% CO2 for 2 h. Mitochondrial dehydrogenases of viable cells reduced the yellowish water-soluble MTT to water-insoluble formazan crystals, which were solubilized with dimethyl sulfoxide (DMSO). The cell culture medium was aspirated cautiously, after which 150 μL DMSO was added to each well, the plates were gently mixed, then 25 μL 0.1 M glycine buffer (pH = 10.5) (Sigma) was added. Optical density was read on the ELISA reader (Multiskan EX, Labsystems, Vienna, VA, USA) at 570 nm. The results were expressed as the percentage of viability compared to untreated cells. All experiments were performed in triplicate. Moreover, cells were treated with 4.0-0.03% concentration of DMSO as a compounds solvent (data not shown).

L929 cells = experiment: as above; type: cell-based, mouse; details: L929 cells, 24 h exposure
Protocol: as §1

melting point [°C] | Structure (SMILES) | IC50 against proliferation of Toxoplasma gondii (Toxoplasma gondii) [µg/mL] | fold more potent than sulfadiazine (Toxoplasma gondii) | IC50 (T. gondii RH tachyzoites; RH tachyzoites in Vero cells, [3H]uracil incorporation, highest concentration tested 125 µg/mL, read-out: IC50 (50% inhibition of T. gondii proliferation in vitro)) [µg/mL] | viability at 24 h, 3.91 µg/mL ([1]; 3.91 µg/mL) [%] | viability at 24 h, 7.81 µg/mL ([1]; 7.81 µg/mL) [%] | viability at 24 h, 15.63 µg/mL ([1]; 15.63 µg/mL) [%] | viability at 24 h, 31.25 µg/mL ([1]; 31.25 µg/mL) [%] | viability at 24 h, 62.5 µg/mL ([1]; 62.50 µg/mL) [%] | viability at 24 h, 125 µg/mL ([1]; 125.00 µg/mL) [%] | viability at 24 h, 250 µg/mL ([1]; 250.00 µg/mL) [%] | viability at 24 h, 500 µg/mL ([1]; 500.00 µg/mL) [%] | CC30 (concentration required for 30% cells proliferation inhibition) (L929 cells) [µg/mL] | IC50 (T. gondii RH tachyzoites; IC50 greater than 125 µg/mL (highest concentration tested), calculated by extrapolation of the curves (GraphPad Prism), read-out: IC50 (50% inhibition of T. gondii proliferation in vitro), extrapolated) [µg/mL]
 | O=C(NNC(=S)Nc1ccc(F)cc1)c1cccs1 [Compound 1] | 33.17 | at least 15 fold |  |  |  |  |  |  |  |  |  |  | 
202 to 204 | Cc1nc[nH]c1C(=O)NNC(=S)Nc1c(C(C)C)cccc1C(C)C [Compound 22, 4-(2,6-Diisopropylphenyl)-1-(4-methylimidazol-5-oyl)thiosemicarbazide] |  |  | 97.7 (≈ 0.272 mM) | 116 | 110 | 101 | 80.7 | 79.8 | 76.6 | 68.2 | 58.8 | 190.55 | 
 | Nc1ccc(S(=O)(=O)Nc2ncccn2)cc1 [Sulfadiazine, 4-amino-N-(2-pyrimidinyl)benzenesulfonamide, reference compound] | > 500 |  |  |  |  |  |  |  |  |  |  | 1251.12 | ~2720 (≈ 10.9 mM)
